Calls of active or inactive are those of the source. The calls are words filed in the database; no cut-off is given here.
Legend:
[1] = molecular target: T1, Peptidyl-prolyl cis-trans isomerase FKBP5 (Homo sapiens, UniProt Q13451); test: Binding affinity to FKBP51 (unknown origin) assessed as inhibition constant by fluorescence polarization assay
T1 sequence (Q13451 whole entry): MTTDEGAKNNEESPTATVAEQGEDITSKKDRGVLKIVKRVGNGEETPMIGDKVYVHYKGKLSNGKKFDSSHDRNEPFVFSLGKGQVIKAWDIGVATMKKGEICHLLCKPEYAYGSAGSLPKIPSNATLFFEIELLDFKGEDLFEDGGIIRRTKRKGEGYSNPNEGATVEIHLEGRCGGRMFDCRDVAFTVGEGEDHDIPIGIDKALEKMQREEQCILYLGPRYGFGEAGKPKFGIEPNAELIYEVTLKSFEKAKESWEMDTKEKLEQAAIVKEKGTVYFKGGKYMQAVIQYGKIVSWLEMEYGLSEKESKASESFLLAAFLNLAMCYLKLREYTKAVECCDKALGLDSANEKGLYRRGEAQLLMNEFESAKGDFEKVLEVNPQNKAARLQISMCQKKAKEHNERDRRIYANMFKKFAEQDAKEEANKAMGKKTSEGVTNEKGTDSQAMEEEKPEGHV

[2] = molecular target: T2, Peptidyl-prolyl cis-trans isomerase FKBP4 (Homo sapiens, UniProt Q02790); test: Binding affinity to FKBP52 (unknown origin) assessed as inhibition constant by fluorescence polarization assay
T2 sequence (Q02790 whole entry): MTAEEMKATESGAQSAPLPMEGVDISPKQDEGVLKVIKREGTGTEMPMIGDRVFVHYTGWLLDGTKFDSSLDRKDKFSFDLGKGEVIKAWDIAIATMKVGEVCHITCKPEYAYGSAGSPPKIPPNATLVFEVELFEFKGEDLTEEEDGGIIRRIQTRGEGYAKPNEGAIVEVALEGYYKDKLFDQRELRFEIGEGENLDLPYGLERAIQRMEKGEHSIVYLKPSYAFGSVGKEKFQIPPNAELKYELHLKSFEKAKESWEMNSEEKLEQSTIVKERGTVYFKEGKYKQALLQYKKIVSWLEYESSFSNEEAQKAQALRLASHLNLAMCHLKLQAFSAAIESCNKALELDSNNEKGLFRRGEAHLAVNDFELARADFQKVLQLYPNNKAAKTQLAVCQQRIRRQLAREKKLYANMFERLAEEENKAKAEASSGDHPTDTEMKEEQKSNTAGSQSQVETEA

[3] = molecular target: T1, Peptidyl-prolyl cis-trans isomerase FKBP5; test: Binding affinity to FKBP51 (unknown origin)
[4] = molecular target: Transient receptor potential cation channel subfamily V member 1 (Mus musculus) (UniProt Q704Y3); test: Desensitization of TRPV1 in naive C57BL/Nrj mouse dorsal root ganglion primary sensory neurons assessed as reduction in capsaicin-stimulated calcium influx at 1 uM preincubated for 2 mins followed by capsaicin stimulation and measured after 20 secs relative to control; format: tissue-based; parameters: scale not given: the % may be the effect or the level left; conditions: Primary sensory neuron, time 140.0 sec
Sequence of Transient receptor potential cation channel subfamily V member 1 (Mus musculus) (Q704Y3 whole entry): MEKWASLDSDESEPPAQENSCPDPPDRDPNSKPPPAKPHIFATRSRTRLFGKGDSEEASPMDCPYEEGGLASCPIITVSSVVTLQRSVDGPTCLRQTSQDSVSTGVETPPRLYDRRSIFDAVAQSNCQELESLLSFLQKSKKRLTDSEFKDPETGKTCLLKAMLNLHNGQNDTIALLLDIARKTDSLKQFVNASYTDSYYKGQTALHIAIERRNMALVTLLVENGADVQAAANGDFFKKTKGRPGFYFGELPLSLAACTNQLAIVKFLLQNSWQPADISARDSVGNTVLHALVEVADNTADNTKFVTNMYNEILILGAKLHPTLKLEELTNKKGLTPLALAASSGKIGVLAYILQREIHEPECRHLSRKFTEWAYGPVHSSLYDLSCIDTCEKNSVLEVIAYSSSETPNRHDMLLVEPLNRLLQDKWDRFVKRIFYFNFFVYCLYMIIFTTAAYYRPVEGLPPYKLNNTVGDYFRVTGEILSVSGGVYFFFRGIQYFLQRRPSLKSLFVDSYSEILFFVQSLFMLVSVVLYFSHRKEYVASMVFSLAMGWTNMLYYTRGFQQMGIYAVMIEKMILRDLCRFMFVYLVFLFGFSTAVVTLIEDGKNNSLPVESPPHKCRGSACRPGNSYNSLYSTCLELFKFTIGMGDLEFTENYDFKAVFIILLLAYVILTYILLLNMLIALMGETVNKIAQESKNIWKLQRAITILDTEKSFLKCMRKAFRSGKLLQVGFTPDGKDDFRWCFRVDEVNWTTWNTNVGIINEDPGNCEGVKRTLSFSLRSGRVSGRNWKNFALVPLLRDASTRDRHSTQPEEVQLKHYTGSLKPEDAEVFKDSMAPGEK

[5] = molecular target: Transient receptor potential cation channel subfamily V member 1 (Mus musculus) (UniProt Q704Y3); test: Desensitization of TRPV1 in C57BL/Nrj mouse dorsal root ganglion primary sensory neurons assessed as reduction in capsaicin-stimulated calcium influx at 0.5 uM preincubated for 2 mins followed by capsaicin stimulation and measured after 20 secs; format: tissue-based; conditions: Primary sensory neuron, time 140.0 sec
[6] = molecular target: T1, Peptidyl-prolyl cis-trans isomerase FKBP5; test: Inhibition of FKBP51 (unknown origin) expressed in HEK293T cells incubated for 2 hrs by NanoBRET assay; format: cell-based
[7] = Tmax in C57BL/6 mouse at 10 mg/kg, ip measured after 6 hrs; format: ADME, organism-based; conditions: in vivo
[8] = Drug penetration in C57BL/6 mouse brain at 10 mg/kg, ip administered as single dose and measured after 6 hrs; format: ADME, organism-based; conditions: in vivo
[9] = Half life in C57BL/6 mouse at 10 mg/kg, ip measured after 6 hrs; format: ADME, organism-based; conditions: in vivo
[10] = Drug accumulation in C57BL/6 mouse gonadal white adipose tissue at 10 mg/kg, ip administered as single dose and measured after 6 hrs; format: ADME, organism-based; conditions: in vivo
[11] = Cmax in C57BL/6 mouse at 10 mg/kg, ip measured after 6 hrs; format: ADME, organism-based; parameters: time 6 hrs, dose 10 mg/kg, route ip; conditions: in vivo
[12] = molecular target: T2, Peptidyl-prolyl cis-trans isomerase FKBP4; test: Inhibition of FKBP52 (unknown origin) expressed in HEK293T cells incubated for 2 hrs by NanoBRET assay; format: cell-based
[13] = Volume of distribution in C57BL/6 mouse at 10 mg/kg, ip measured after 6 hrs; format: ADME, organism-based; conditions: in vivo

SMILES	Ki [1] [nM]	Ki [2] [nM]	also measured
C=CC[C@@H](C(=O)N1CCCC[C@H]1C(=O)O[C@H](CCc1ccc(OC)c(OC)c1)c1cccc(OCC(=O)O)c1)c1ccc(Cl)s1	223	> 10000	–
COc1ccc(CC[C@H]2OC(=O)[C@@H]3CCCCN3C(=O)[C@@H](C3CCCCC3)NC(=O)C3(CC3)NC(=O)COc3cccc2c3)cc1OC	–	–	Ki [3]: 400 nM
COc1ccc(CC[C@@H](OC(=O)[C@@H]2CCCCN2C(=O)[C@H](c2cc(OC)c(OC)c(OC)c2)c2cccs2)c2cccc(OCC(=O)O)c2)cc1OC	103	10200	–
COc1ccc(CC[C@@H](OC(=O)[C@@H]2CCCCN2C(=O)[C@H](C)c2ccc(Cl)s2)c2cccc(OCC(=O)O)c2)cc1OC	300	> 50000	–
COc1ccc(CC[C@@H](OC(=O)[C@@H]2CCCCN2C(=O)[C@H](c2cc(OC)c(OC)c(OC)c2)c2ccc(Br)s2)c2cccc(OCC(=O)O)c2)cc1OC	7	436	–
CCc1ccc([C@H](C(=O)N2CCCC[C@H]2C(=O)O[C@H](CCc2ccc(OC)c(OC)c2)c2cccc(OCC(=O)O)c2)c2cc(OC)c(OC)c(OC)c2)s1	13	> 1000	–
COc1ccc(CC[C@@H](OC(=O)[C@@H]2CCCCN2C(=O)[C@H](c2cc(OC)c(OC)c(OC)c2)c2ccc(C)s2)c2cccc(OCC(=O)O)c2)cc1OC	7	1030	–
COc1ccc(CC[C@@H](OC(=O)[C@@H]2CCCCN2C(=O)C(c2cccs2)C2CCCCC2)c2cccc(OCC(=O)O)c2)cc1OC (stereo partly specified)	442	> 30000	–
COc1ccc(CCC(OC(=O)C2CCCCN2C(=O)[C@H](c2cc(OC)c(OC)c(OC)c2)c2ccc(C)s2)c2cccc(OCCN3CCOCC3)c2)cc1OC (single isomer, unassigned)	17	775	Activity [4]: 50%; Activity [5]: Active; IC50 [6]: 613 nM
COc1ccc(CC[C@@H](OC(=O)[C@@H]2CCCCN2C(=O)[C@H](c2cc(OC)c(OC)c(OC)c2)c2ccc(C3CC3)s2)c2cccc(OCC(=O)O)c2)cc1OC	41	> 1000	–
COc1ccc(CC[C@@H](OC(=O)[C@@H]2CCCCN2C(=O)[C@@H](c2ccsc2)c2cc(OC)c(OC)c(OC)c2)c2cccc(OCC(=O)O)c2)cc1OC	140	18000	–
COc1ccc(CC[C@@H](OC(=O)[C@@H]2CCCCN2C(=O)[C@@H](c2ccccc2)c2cc(OC)c(OC)c(OC)c2)c2cccc(OCC(=O)O)c2)cc1OC	118	43800	–
CC[C@@H](C(=O)N1CCCC[C@H]1C(=O)O[C@H](CCc1ccc(OC)c(OC)c1)c1cccc(OCC(=O)O)c1)c1ccc(Cl)s1	210	> 10000	–
COc1ccc(CC[C@@H](OC(=O)[C@@H]2CCCCN2C(=O)C(c2ccc(Cl)s2)C2CCCCC2)c2cccc(OCC(=O)O)c2)cc1OC (stereo partly specified)	154	> 10000	–
COc1ccc(CC[C@@H](OC(=O)[C@@H]2CCCCN2C(=O)[C@H](c2cc(OC)c(OC)c(OC)c2)c2ccc(Cl)s2)c2cccc(OCC(=O)O)c2)cc1OC	4	950	–
COc1ccc(CCC(OC(=O)C2CCCCN2C(=O)[C@H](c2cc(OC)c(OC)c(OC)c2)c2ccc(Cl)s2)c2cccc(OCCN3CCOCC3)c2)cc1OC (single isomer, unassigned)	19	774	Tmax [7]: 0.5 h; Activity [4]: 50%; Drug uptake [8]: Active; IC50 [6]: 584 nM; half-life [9]: 4.3 h; Drug uptake [10]: Active; Cmax [11]: 990 ng/mL; IC50 [12]: 2900 nM; Vd [13]: 0.3 L
COc1ccc(CC[C@@H](OC(=O)[C@@H]2CCCCN2C(=O)[C@H](c2cc(OC)c(OC)c(OC)c2)c2ccc(C#N)s2)c2cccc(OCC(=O)O)c2)cc1OC	23	2730	–
COc1ccc(CC[C@@H](OC(=O)[C@@H]2CCCCN2C(=O)[C@@H](CN2CCOCC2)c2cc(OC)c(OC)c(OC)c2)c2cccc(OCC(=O)O)c2)cc1OC	8	2160	Tmax [7]: 1 h; IC50 [6]: 196 nM; half-life [9]: 3.7 h; Cmax [11]: 3060 ng/mL; IC50 [12]: 3180 nM; Vd [13]: 0.1 L
COc1ccc(CC[C@H]2OC(=O)[C@@H]3CCCCN3C(=O)[C@@H](C3CCCCC3)c3cc(OC)c(OC)c(c3)OC[C@H](O)[C@H](O)COc3cccc2c3)cc1OC	–	–	Ki [3]: 5 nM
COc1ccc(CC[C@@H](OC(=O)[C@@H]2CCCCN2C(=O)[C@H](c2cc(OC)c(OC)c(OC)c2)C2CCCCC2)c2cccc(OCC(=O)O)c2)cc1OC	6	3860	–

From ChEMBL document CHEMBL5338748, “Structure-Based Discovery of a New Selectivity-Enabling Motif for the FK506-Binding Protein 51” (J Med Chem, 2023)
